Measurements as given in patent US11767305B2, “Advantageous benzofuran compositions for mental disorders or enhancement” (Tactogen Inc, priority 2020, dated 2023).
Where a name gives a salt, the structure may show the parent alone.

What was measured:
5-HT1BR = 5-HT1BR (Homo sapiens (Human), UniProt P28222); test: 5-HT1BR cAMP secondary messenger agonist assay (HitHunter, CHO-K1); format: cell-based
Description: The 5-HT1BR cAMP secondary messenger agonist assay used a panel of CHO-K1 cell lines stably expressing non-tagged GPCRs that endogenously signal through cAMP. Hit Hunter® cAMP assays monitored the activation of a GPCR via Gi and Gs secondary messenger signaling in a homogenous, non-imaging assay format using DiscoverX Enzyme Fragment Complementation (EFC) with β-galactosidase as the functional endpoint.
The enzyme was split into two complementary portions: Enzyme Acceptor (EA) and Enzyme Donor (ED). Exogenously introduced ED fused to cAMP (ED-cAMP) competed with endogenously generated cAMP for binding to an anti-cAMP-specific antibody. Active β-galactosidase was formed by complementation of exogenous EA to any unbound ED-cAMP.
Cell lines were expanded from freezer stocks according to standard procedures. Cells were seeded in a total volume of 20 μL into white walled, 384-well microplates and incubated at 37° C. for the appropriate time prior to testing. cAMP modulation was determined using the DiscoverX HitHunter cAMP XS+ assay.
For agonist determination, cells were incubated with sample (in the presence of EC80 forskolin to induce response if measuring Gi secondary messenger signaling). Media was aspirated from cells and replaced with 15 μL 2:1 HBSS/10 mM Hepes:cAMP XS+ Ab reagent. Intermediate dilution of sample stocks was performed to generate 4×sample in assay buffer (optionally containing 4×EC80 forskolin). 5 μL of 4×sample was added to cells and incubated at 37° C. or room temperature for 30 or 60 minutes, as appropriate. Final assay vehicle concentration was 1%.

[1] = Salt screening experiments (PXRD result); format: physicochemical; settings: S-5-MAPB Pure Enantiomer (Pattern 1A Enantiomer) + counterion 1:1 molar ratio, 40° C.
[2] = target: human 5-HT transporter (hSERT) (Homo sapiens (Human), UniProt P31645); test: Human serotonin transporter  assay ([3H]imipramine radioligand, CHO cells); format: binding; settings: for IC50: SERT IC50 (μM), 2 nM [3H]imipramine; for Ki: SERT Ki (μM), Cheng Prusoff equation
Description: Benzofuran derivatives were evaluated for inhibiting the human 5-HT transporter (hSERT) as expressed in CHO cells using an antagonist radioligand assay (Tatsumi, M. et al. (1999), Eur. J Pharmacol., 368: 277-283). […] Test compounds were assayed in three trials at […], and 0.94868 μM.

[3] = target: T1, serotonin (5-HT) transporter (SERT) (Rattus norvegicus (Rat), UniProt P31652); test: Rat synaptosome SERT [3H]5-HT release assay; settings: [3H]5-HT release via SERT EC50 (nM), 5 nM [3H]5-HT
[4] = target: T1, serotonin (5-HT) transporter (SERT); test: Rat synaptosome SERT [3H]5-HT uptake inhibition assay; settings: Inhibition of [3H]5-HT Uptake at SERT IC50 (nM), 5 nM [3H]5-HT

CNC(C)C(=O)c1ccc2occc2c1 (single isomer, unassigned) [Enantiomer 1 BK-5-MAPB, 1-(benzofuran-5-yl)-2-(methylamino) propan-1-one]
EC50 (5-HT1BR; 5HT1B Agonist (μM)): 0.08 µM

CNC(C)C(=O)c1ccc2ccoc2c1 (racemic) [rac-BK-6-MAPB, 1-(benzofuran-6-yl)-2-(methylamino)propan-1-one hydrochloride]
Hill Coef. (5-HT1BR): 0.99 | EC50 (5-HT1BR; 5-HT1BR EC50 (μM)): 0.537 µM

NCCCC[C@H](N)C(=O)O [L-Lysine]
PXRD Result ([1]; solvent Acetone): N/A (gel) | PXRD Result ([1]; solvent EtOH:water 90:10): N/A (gel) | PXRD Result ([1]; solvent MeOH:water 90:10): N/A (gel) | PXRD Result ([1]; solvent THF): L-Lysine

CNC(C)C(=O)c1ccc2occc2c1 (single isomer, unassigned; (+)) [(+)-BK-5-MAPB, 1-(benzofuran-5-yl)-2-(methylamino) propan-1-one]
IC50 [2]: 38 µM | Ki [2]: 17 µM | EC50 [3]: 439 ± 72.5 nM | Hill Coef. (5-HT1BR): 1.05 | EC50 (5-HT1BR; 5-HT1BR EC50 (μM)): 3.07 µM | IC50 [4]: 2090 ± 151 nM

CCC(NC)C(=O)c1ccc2occc2c1 (single isomer, unassigned; (-)) [(−)-BK-5-MBPB, 1-(benzofuran-5-yl)-2-(methylamino) butan-1-one]
IC50 [2]: 1.6 µM | Ki [2]: 0.72 µM | Hill Coef. (5-HT1BR): 1.6241 | EC50 (5-HT1BR; 5-HT1BR EC50 (μM)): 6.61 µM

CCC(NC)C(=O)c1ccc2ccoc2c1 (racemic) [rac-BK-6-MBPB, 1-(benzofuran-6-yl)-2-(methylamino)butan-1-one hydrochloride]
EC50 (5-HT1BR; 5-HT1BR EC50 (μM)): > 30 µM

O=C(O)CCC(=O)O [Succinic]
PXRD Result ([1]; solvent Acetone): N/A (gel) | PXRD Result ([1]; solvent EtOH:water 90:10): N/A (gel) | PXRD Result ([1]; solvent MeOH:water 90:10): N/A (gel) | PXRD Result ([1]; solvent THF): N/A (gel)

CCC(NC)C(=O)c1ccc2occc2c1 (racemic) [rac-BK-5-MBPB, 1-(benzofuran-5-yl)-2-(methylamino)butan-1-one hydrochloride]
Hill Coef. (5-HT1BR): 1.01 | EC50 (5-HT1BR; 5-HT1BR EC50 (μM)): 19.6 µM

CNC(C)C(=O)c1ccc2occc2c1 (single isomer, unassigned; (-)) [(−)-BK-5-MAPB, 1-(benzofuran-5-yl)-2-(methylamino) propan-1-one]
IC50 [2]: 6.9 µM | Ki [2]: 3.2 µM | EC50 [3]: 80 ± 13.7 nM | Hill Coef. (5-HT1BR): 1.5 | EC50 (5-HT1BR; 5-HT1BR EC50 (μM)): 0.0777 µM | IC50 [4]: 284 ± 11.9 nM

CS(=O)(=O)O [Methane Sulfonic]
PXRD Result ([1]; solvent Acetone): N/A (gel) | PXRD Result ([1]; solvent EtOH:water 90:10): N/A (gel) | PXRD Result ([1]; solvent MeOH:water 90:10): N/A (gel) | PXRD Result ([1]; solvent THF): N/A (gel)

CNC(C)C(=O)c1ccc2occc2c1 (racemic) [rac-BK-5-MAPB, 1-(benzofuran-5-yl)-2-(methylamino)propan-1-one hydrochloride]
Hill Coef. (5-HT1BR): 0.91 | EC50 (5-HT1BR; 5-HT1BR EC50 (μM)): 0.14 µM

CNC(C)C(=O)c1ccc2ccoc2c1 (single isomer, unassigned; (+)) [(+)-BK-6-MAPB, 1-(benzofuran-6-yl)-2-(methylamino) propan-1-one]
EC50 [3]: 1280 ± 268 nM | EC50 (5-HT1BR; 5-HT1BR EC50 (μM)): > 10 µM | IC50 [4]: 5470 ± 424 nM

CNC(C)C(=O)c1ccc2ccoc2c1 (single isomer, unassigned; (-)) [(−)-BK-6-MAPB, 1-(benzofuran-6-yl)-2-(methylamino) propan-1-one]
IC50 [2]: 12 µM | Ki [2]: 5.4 µM | EC50 [3]: 72.2 ± 16.6 nM | Hill Coef. (5-HT1BR): 0.8339 | EC50 (5-HT1BR; 5-HT1BR EC50 (μM)): 0.288 µM | IC50 [4]: 275 ± 13 nM

O=C(O)/C=C\C(=O)O [Maleic]
PXRD Result ([1]; solvent Acetone): N/A (gel) | PXRD Result ([1]; solvent EtOH:water 90:10): N/A (gel) | PXRD Result ([1]; solvent MeOH:water 90:10): N/A (gel) | PXRD Result ([1]; solvent THF): N/A (gel)
